Data: patent publication US12465652B2 (AMGEN INC., priority 2017, dated 2025)

How the values were obtained:
[1] = target: T1, human GLP-IR (Homo sapiens, UniProt P43220); assay: GLP1 activity | EC50 (M)
Excerpt: Table printed on a drawing sheet, FIG. 1A Head of the field: GLP1 activity | EC50 (M) The patent's description of the figure: FIG. 1A-1B: Synthetic Peptides (FIG. 1A discloses SEQ ID NOS 3948 and 3275-3298 and FIG. 1B discloses SEQ ID NOS 3948 and 3299-3302, all respectively, in order of appearance) First copying reader's note: The first head row prints a reference sequence (residues at positions 7-35) above the position numbers; two fully empty rows separate groups of peptides. Where the first naming reader finds the target: passage: CHOK1 cells stably expressing the human GLP-IR were used to measure peptide or recombinant fusion-induced cAMP production

[2] = target: T1, human GLP-IR; assay: GLP1 activity | EC50 (pM)
Excerpt: Table printed on a drawing sheet, FIG. 1A
Head of the field: GLP1 activity | EC50 (pM)
The patent's description of the figure: FIG. 1A-1B: Synthetic Peptides (FIG. 1A discloses SEQ ID NOS 3948 and 3275-3298 and FIG. 1B discloses SEQ ID NOS 3948 and 3299-3302, all respectively, in order of appearance)
First copying reader's note: The first head row prints a reference sequence (residues at positions 7-35) above the position numbers; two fully empty rows separate groups of peptides.
Where the first naming reader finds the target: passage: CHOK1 cells stably expressing the human GLP-IR were used to measure peptide or recombinant fusion-induced cAMP production

T1 sequence (P43220 24-463 limits assumed): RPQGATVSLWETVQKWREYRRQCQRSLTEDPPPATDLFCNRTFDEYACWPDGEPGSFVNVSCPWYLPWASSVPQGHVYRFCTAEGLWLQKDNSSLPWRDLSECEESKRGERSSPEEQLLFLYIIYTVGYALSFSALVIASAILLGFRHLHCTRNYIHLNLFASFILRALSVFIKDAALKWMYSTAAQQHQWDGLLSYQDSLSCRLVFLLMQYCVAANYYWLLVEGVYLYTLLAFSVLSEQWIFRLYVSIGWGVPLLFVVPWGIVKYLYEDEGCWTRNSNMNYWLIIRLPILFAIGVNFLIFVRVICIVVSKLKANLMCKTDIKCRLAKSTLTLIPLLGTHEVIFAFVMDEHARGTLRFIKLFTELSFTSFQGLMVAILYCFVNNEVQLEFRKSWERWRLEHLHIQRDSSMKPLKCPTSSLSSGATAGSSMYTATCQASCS

Question: CC[C@H](C)[C@H](NC(=O)[C@H](Cc1ccccc1)NC(=O)[C@H](CCC(=O)O)NC(=O)[C@H](CCCCN)NC(=O)[C@H](C)NC(=O)[C@H](C)NC(=O)[C@H](CCC(N)=O)NC(=O)CNC(=O)[C@H](CCC(=O)O)NC(=O)[C@H](CC(C)C)NC(=O)[C@H](Cc1ccc(O)cc1)NC(=O)[C@H](CO)NC(=O)[C@H](CO)NC(=O)[C@@H](NC(=O)[C@H](CC(=O)O)NC(=O)[C@H](CO)NC(=O)[C@@H](NC(=O)[C@H](Cc1ccccc1)NC(=O)[C@@H](NC(=O)CNC(=O)[C@H](CCC(=O)O)NC(=O)CNC(=O)[C@H](Cc1c[nH]cn1)NC(=O)[C@H](C)N)[C@@H](C)O)[C@@H](C)O)C(C)C)C(=O)N[C@@H](C)C(=O)N[C@@H](Cc1c[nH]c2ccccc12)C(=O)N[C@@H](CC(C)C)C(=O)N[C@H](C(=O)N[C@@H](CCCCN)C(=O)NCC(=O)O)C(C)C [3166749#1, AHGEGTFTSDVSSYLEGQAAKEFIAWLVKG] was tested. Which EC50 [1] did it give?
Answer: 0.0669 nM

Question: For CC[C@H](C)[C@H](NC(=O)[C@H](Cc1ccccc1)NC(=O)[C@H](CCC(=O)O)NC(=O)[C@H](CCCCN)NC(=O)[C@H](C)NC(=O)[C@H](C)NC(=O)[C@H](CCC(N)=O)NC(=O)CNC(=O)[C@H](CCC(=O)O)NC(=O)[C@H](CC(C)C)NC(=O)[C@H](Cc1ccc(O)cc1)NC(=O)[C@H](CO)NC(=O)[C@H](CO)NC(=O)[C@@H](NC(=O)[C@H](CC(=O)O)NC(=O)[C@H](CO)NC(=O)[C@@H](NC(=O)[C@H](Cc1ccccc1)NC(=O)[C@@H](NC(=O)CNC(=O)[C@H](CCC(=O)O)NC(=O)CNC(=O)[C@H](Cc1c[nH]cn1)NC(=O)CN)[C@@H](C)O)[C@@H](C)O)C(C)C)C(=O)N[C@@H](C)C(=O)N[C@@H](Cc1c[nH]c2ccccc12)C(=O)N[C@@H](CC(C)C)C(=O)N[C@H](C(=O)N[C@@H](CCCCN)C(=O)NCC(=O)O)C(C)C [3166961#1, GHGEGTFTSDVSSYLEGQAAKEFIAWLVKG], which EC50 [2] is on record?
Answer: 0.205 nM

Question: For CC[C@H](C)[C@H](NC(=O)[C@H](Cc1ccccc1)NC(=O)[C@H](CCC(=O)O)NC(=O)[C@H](CCCCN)NC(=O)[C@H](C)NC(=O)[C@H](C)NC(=O)[C@H](CCC(N)=O)NC(=O)CNC(=O)[C@H](CCC(=O)O)NC(=O)[C@H](CC(C)C)NC(=O)[C@H](Cc1ccc(O)cc1)NC(=O)[C@H](CO)NC(=O)[C@H](CO)NC(=O)[C@@H](NC(=O)[C@H](CC(=O)O)NC(=O)[C@H](CO)NC(=O)[C@@H](NC(=O)[C@H](Cc1ccccc1)NC(=O)[C@@H](NC(=O)CNC(=O)[C@H](CCC(=O)O)NC(=O)CNC(=O)[C@H](Cc1c[nH]cn1)NC(=O)[C@@H](N)Cc1c[nH]cn1)[C@@H](C)O)[C@@H](C)O)C(C)C)C(=O)N[C@@H](C)C(=O)N[C@@H](Cc1c[nH]c2ccccc12)C(=O)N[C@@H](CC(C)C)C(=O)N[C@H](C(=O)N[C@@H](CCCCN)C(=O)NCC(=O)O)C(C)C [3166962#1, HHGEGTFTSDVSSYLEGQAAKEFIAWLVKG], which EC50 [2] is on record?
Answer: 0.363 nM
